Assay results as given in article PMC9602407, “Purification, Identification and Molecular Docking of Immunomodulatory Peptides from the Heads of Litopenaeus vannamei” (Foods, 2022).
Blank lines part the entries; values can stand above or below the molecule they belong to. Where a SMILES comes first, the peptide text is derived from it. Where no end group is shown, it is not given here.

What was measured:
splenic lymphocytes = test system: splenic lymphocytes; design: method as in doi:10.1016/j.jff.2020.103887; details: 100 μg/mL; cited from earlier work
TNF-α secretion = test system: TNF-α secretion; design: method as in doi:10.1016/j.jff.2020.103887; details: 100 μg/mL; cited from earlier work
[1] = design: method as in doi:10.1016/j.jff.2020.103887; details: 100 μg/mL; cited from earlier work
pepsin and trypsin = test: In vitro gastrointestinal digestion stability (pepsin, then trypsin), read out as MRPR; assay type: in vitro ADME; details: for Maximal increase of MRPR through gastrointestinal digestion compared with the untreated group: 2% (w/w) pepsin pH 2.0 37 °C 2 h, then 2% (w/w) trypsin pH 7.5 37 °C 2 h, 1 mg/mL peptide
Experimental: The macrophages were cultured in a medium (containing 90% DMEM medium, 10% FBS, and 1% double antibody) at 37 °C and 5% CO2. The MRPR was determined following to the MTT assay used by Xu et al.. The density of the log-phase cells was adjusted to 1 × 10^5 cells/mL, and 100 μL/well of cell suspension was seeded in 96-well plates and incubated overnight in an incubator (BB-150-CO2 incubator, Thermo Scientific, Waltham, MA, USA). The perimeter of the 96-well plate was filled with PBS. The old culture medium was then discarded, 200 μL of the sample solution was added (DMEM medium was used to dissolve the sample to the desired concentration), and control and blank groups were set up with DMEM medium. After incubating for 36 h, 200 μL of medium (containing 5% MTT) was added to each well instead of the original medium and cultured in the dark for 4 h. After the supernatant was discarded, 150 μL of DMSO was added, shaken for 20 min at room temperature, and the absorbance was detected at 490 nm by a microplate reader (ELx800, BioTek Instruments, Winooski, VT, USA). The MRPR (%) was calculated using the following formula:Macrophage relative proliferation rate (%) = (A1 − A3)/(A2 − A3) × 100 (1) where A1 and A2 represented the sample solution and DMEM medium with cells (sample and control group), respectively, and A3 represented DMEM medium with no cells (blank group).
For gastrointestinal digestion stability, computer simulated gastrointestinal digestion was first performed using the PeptideCutter (https://web.expasy.org/peptide_cutter/) (accessed on 20 June 2022) with a selection of pepsin (pH > 2) and trypsin. Then, six peptides (10 mg) were dissolved in 10 mL of distilled water, the pH was adjusted to pH 2.0 with 1 M HCl, and then 2% (w/w) pepsin was added and incubated at 37 °C for 2 h to simulate gastric digestion. The pH of the gastric digest was then adjusted to 5.3 with 0.9 M NaHCO3 solution and to pH 7.5 with 1 M NaOH solution. Following this, 2% (w/w) trypsin was added and incubated at 37 °C for 2 h to simulate intestinal digestion. After digestion, the digest was inactivated in a water bath at 100 °C for 10 min, centrifuged at 10,000 r/min for 10 min, and the supernatant was freeze-dried to obtain the gastric intestinal digest of each of the six synthetic peptides. The MRPR was determined using the sample without any treatment as the control.

Molecule: RGPPP [Pseudostellaria heterophylla peptide from the literature]
- Stimulation index on splenic lymphocytes (splenic lymphocytes): 1.27
- TNF-α secretion upregulated to (TNF-α secretion): 827.24 pg/mL
- Cytokinesis rate increased to [1]: 123.81%

Molecule: CSCC[C@H](NC(=O)CNC(=O)[C@@H]1CCCN1)C(=O)N[C@@H](CCCNC(=N)N)C(=O)O [PGMR] (H-PGMR-OH)
- Change of activity (MRPR) through gastrointestinal digestion, in words (pepsin and trypsin; pepsin then trypsin, 37 °C, 2 h each, versus untreated group): decreased, but was not significantly different

Molecule: GPQGPPGH [GPQGPPGH]
- Maximal increase of MRPR through gastrointestinal digestion compared with the untreated group (pepsin and trypsin; read-out MRPR): 4.17%

Continued, values first:

- MRPR after the action of pepsin (pepsin and trypsin; 2% (w/w) pepsin, pH 2.0, 37 °C, 2 h, read-out MRPR, mean ± SD): 143.06 ± 7.71%
- MRPR after the action of trypsin (pepsin and trypsin; after pepsin step, 2% (w/w) trypsin, pH 7.5, 37 °C, 2 h, read-out MRPR, mean ± SD): 148.80 ± 0.41%
Molecule: PSPFPYFT [PSPFPYFT]

- Maximal increase of MRPR through gastrointestinal digestion compared with the untreated group (pepsin and trypsin; read-out MRPR): 7.36%
Molecule: N=C(N)NCCC[C@H](NC(=O)[C@H](CCC(N)=O)NC(=O)[C@@H](N)Cc1c[nH]c2ccccc12)C(=O)O [WQR] (H-Trp-Gln-Arg-OH)

- Increase of MRPR in the gastric digestion (pepsin and trypsin; 2% (w/w) pepsin, pH 2.0, 37 °C, 2 h, versus untreated): 11.23%
Molecule: SAGFPEGF [SAGFPEGF]
